Experimental data taken from publication PMC11946679 (Toxics, 2025).
Where two headings read alike, the source gives them in different places.

How the values were obtained:
human lymphocytes = test system: human lymphocytes; design: method as in PMID 27461151; details: galangin at 10-20,000 μmol/L; cited from earlier work
[1] = test system: human peripheral blood lymphocytes; assay: CBMN cytome assay: lymphocyte proliferation (M1-M4, CBPI, RI); format: cell-based; details: 3 h
Experimental: On the same slides, parameters of cell proliferation and cytotoxicity were also evaluated, in line with the OECD protocol.

[2] = test system: human peripheral blood lymphocytes; format: cell-based; details: 3 h
Description: While screening microscope preparations to determine trends in the levels of the main CBMN assay descriptors, nonviable cells were also simultaneously counted on the same slides. Their discrimination was based on the specific morphological features typical for apoptosis or necrosis. It is well known that the biological significance of these phenomena differs deeply, and that the determination of the predominant type of cell death represents a very important issue in each experimental setting.
For each experimental group, we also calculated the ratio between the recorded number of nonviable cells and the cells in apoptosis (Table 5). According to reference, a ratio ≤ 1 means a prevalence of apoptotic events that induce cell death, while a ratio > 1 indicates the acute toxicity of the tested substance that promotes necrosis.

[3] = 1× + IRI 9.0 mg/L, propolis 1.36 mg/L, galangin 0.02 mg/L
[4] = 1× alone, propolis 1.36 mg/L, galangin 0.02 mg/L
[5] = 5× + IRI 9.0 mg/L, propolis 6.8 mg/L, galangin […]
[6] = 5× alone, propolis 6.8 mg/L, galangin […]
[7] = 10× + IRI 9.0 mg/L, propolis 13.6 mg/L, galangin 0.22 mg/L
[8] = 10× alone, propolis 13.6 mg/L, galangin 0.22 mg/L
[9] = scored along with 4000 binucleated cells, 1× + IRI 9.0 mg/L, propolis 1.36 mg/L, galangin 0.02 mg/L
[10] = scored along with 4000 binucleated cells, 5× + IRI 9.0 mg/L, propolis 6.8 mg/L, galangin […]
[11] = scored along with 4000 binucleated cells, 10× + IRI 9.0 mg/L, propolis 13.6 mg/L, galangin 0.22 mg/L

O=c1c(O)c(-c2ccccc2)oc2cc(O)cc(O)c12 [Galangin]
genotoxicity (human lymphocytes): not genotoxic per se | % of Cells with 1 to 4 Nuclei M1 [1, 3]: 24.5 ^↑L % | % of Cells with 1 to 4 Nuclei M2 [1, 3]: 72.3 ^H % | % of Cells with 1 to 4 Nuclei M3 [1, 3]: 1.4 ^↓ % | % of Cells with 1 to 4 Nuclei M4 [1, 3]: 1.8 ^↓ % | CBPI [1, 3]: 1.788 | Replication Index (%) [1, 3]: 80.1% | % of Cells with 1 to 4 Nuclei M1 [1, 4]: 13.4% | % of Cells with 1 to 4 Nuclei M2 [1, 4]: 74.7% | % of Cells with 1 to 4 Nuclei M3 [1, 4]: 4.0% | % of Cells with 1 to 4 Nuclei M4 [1, 4]: 7.9% | CBPI [1, 4]: 1.986 | Replication Index (%) [1, 4]: 100.3% | % of Cells with 1 to 4 Nuclei M1 [1, 5]: 22.6 ^↑L % | % of Cells with 1 to 4 Nuclei M2 [1, 5]: 74.2 ^H % | % of Cells with 1 to 4 Nuclei M3 [1, 5]: 1.6 ^↓ % | % of Cells with 1 to 4 Nuclei M4 [1, 5]: 1.6 ^↓ % | CBPI [1, 5]: 1.806 | Replication Index (%) [1, 5]: 82.0% | % of Cells with 1 to 4 Nuclei M1 [1, 6]: 13.3% | % of Cells with 1 to 4 Nuclei M2 [1, 6]: 76.9 ^↑ % | % of Cells with 1 to 4 Nuclei M3 [1, 6]: 3.3 ^↓ % | % of Cells with 1 to 4 Nuclei M4 [1, 6]: 6.5% | CBPI [1, 6]: 1.967 | Replication Index (%) [1, 6]: 98.3% | % of Cells with 1 to 4 Nuclei M1 [1, 7]: 23.1 ^↑L % | % of Cells with 1 to 4 Nuclei M2 [1, 7]: 74.6 ^H % | % of Cells with 1 to 4 Nuclei M3 [1, 7]: 1.0 ^↓L % | % of Cells with 1 to 4 Nuclei M4 [1, 7]: 1.3 ^↓ % | CBPI [1, 7]: 1.792 | Replication Index (%) [1, 7]: 80.5% | % of Cells with 1 to 4 Nuclei M1 [1, 8]: 10.8 ^↓ % | % of Cells with 1 to 4 Nuclei M2 [1, 8]: 79.0 ^↑ % | % of Cells with 1 to 4 Nuclei M3 [1, 8]: 4.0% | % of Cells with 1 to 4 Nuclei M4 [1, 8]: 6.2% | CBPI [1, 8]: 1.995 | Replication Index (%) [1, 8]: 101.2% | Ratio (nonviable cells and cells in apoptosis) [2, 3]: 0.5 | Ratio (nonviable cells and cells in apoptosis) [2, 5]: 0.5 | Ratio (nonviable cells and cells in apoptosis) [2, 7]: 0.6 | Ratio (nonviable cells and cells in apoptosis) ([2]; male, human, 0.02 mg/L): 0.5 | Total No. of Cells in Apoptosis ([2]; male, human, 0.02 mg/L): 7 | Total No. of Nonviable Cells ([2]; male, human, 0.02 mg/L): 14 | Ratio (nonviable cells and cells in apoptosis) ([2]; male, human, 0.22 mg/L): 0.7 | Total No. of Cells in Apoptosis ([2]; male, human, 0.22 mg/L): 8 | Total No. of Nonviable Cells ([2]; male, human, 0.22 mg/L): 12 | Total No. of Cells in Apoptosis [2, 9]: 28 | Total No. of Nonviable Cells [2, 9]: 52 | Total No. of Cells in Apoptosis [2, 10]: 23 | Total No. of Nonviable Cells [2, 10]: 42 | Total No. of Cells in Apoptosis [2, 11]: 19 | Total No. of Nonviable Cells [2, 11]: 34
